# Laboratory results published in ChEMBL document CHEMBL5537158, “Polymyxins with Potent Antibacterial Activity against Colistin-Resistant Pathogens: Fine-Tuning Hydrophobicity with Unnatural Amino Acids” (J Med Chem, 2024).
# The source made the active and inactive calls. No cut-off for these calls is given here. Positions of bridges follow the written chain, without caps; N, C: chain ends. Non-standard residues stand in square brackets, D forms with d. Residues, ends and D or L forms follow the SMILES beside them. *: point of attachment. Benzoyl(4-Ph) = O=C(c1ccc(-c2ccccc2)cc1)*; Dab = NCC[C@H](N)C(=O)O
# Tests used:
# [1] = test system: Pseudomonas aeruginosa; assay: Antimicrobial activity against colistin resistant Pseudomonas aeruginosa clinical isolate 1 assessed as bacterial growth inhibition incubated for 20 hrs by broth microdilution method; assay type: functional
# [2] = test system: Pseudomonas aeruginosa; assay: Antimicrobial activity against Pseudomonas aeruginosa PAO1 assessed as bacterial growth inhibition incubated for 20 hrs by broth microdilution method; assay type: functional
# [3] = test system: Acinetobacter baumannii; assay: Antimicrobial activity against colistin resistant Acinetobacter baumannii clinical isolate 3 assessed as bacterial growth inhibition incubated for 20 hrs by broth microdilution method; assay type: functional
# [4] = test system: Escherichia coli; assay: Potency index, ratio of colistin MIC to test compound MIC for antibacterial activity against […] Escherichia coli; assay type: functional
# [5] = test system: Klebsiella pneumoniae; assay: Antimicrobial activity against colistin resistant Klebsiella pneumoniae clinical isolate 3 assessed as bacterial growth inhibition incubated for 20 hrs by broth microdilution method; assay type: functional
# [6] = test system: Acinetobacter baumannii; assay: Antimicrobial activity against colistin resistant Acinetobacter baumannii clinical isolate 4 assessed as bacterial growth inhibition incubated for 20 hrs by broth microdilution method; assay type: functional
# [7] = test system: Pseudomonas aeruginosa; assay: Antimicrobial activity against Pseudomonas aeruginosa ATCC 27853 assessed as bacterial growth inhibition incubated for 20 hrs by broth microdilution method; assay type: functional
# [8] = test system: Acinetobacter baumannii; assay: Antimicrobial activity against Acinetobacter baumannii ATCC 19606 assessed as bacterial growth inhibition incubated for 20 hrs by broth microdilution method; assay type: functional
# [9] = test system: Acinetobacter baumannii; assay: Antimicrobial activity against colistin resistant Acinetobacter baumannii ATCC 3658/17 assessed as bacterial growth inhibition incubated for 20 hrs by broth microdilution method; assay type: functional
# [10] = test system: Escherichia coli; assay: Antibacterial activity against […] Escherichia coli clinical isolate 3 assessed as bacterial growth inhibition incubated for 20 hrs by broth microdilution method; assay type: functional
# [11] = test system: Klebsiella pneumoniae; assay: Antimicrobial activity against colistin resistant Klebsiella pneumoniae clinical isolate 2 assessed as bacterial growth inhibition incubated for 20 hrs by broth microdilution method; assay type: functional
# [12] = test system: Acinetobacter baumannii; assay: Antimicrobial activity against colistin resistant Acinetobacter baumannii clinical isolate 1 assessed as bacterial growth inhibition incubated for 20 hrs by broth microdilution method; assay type: functional
# [13] = test system: Escherichia coli; assay: Potency index, ratio of colistin MIC to test compound MIC for antibacterial activity against Escherichia coli harboring mcr-1; assay type: functional
# [14] = test system: Klebsiella pneumoniae; assay: Antimicrobial activity against Klebsiella pneumoniae ATCC 13883 assessed as bacterial growth inhibition incubated for 20 hrs by broth microdilution method; assay type: functional
# [15] = test system: Klebsiella pneumoniae; assay: Antimicrobial activity against colistin resistant Klebsiella pneumoniae clinical isolate 1 assessed as bacterial growth inhibition incubated for 20 hrs by broth microdilution method; assay type: functional
# [16] = test system: Acinetobacter baumannii; assay: Antimicrobial activity against colistin resistant Acinetobacter baumannii clinical isolate 2 assessed as bacterial growth inhibition incubated for 20 hrs by broth microdilution method; assay type: functional
# [17] = test system: Pseudomonas aeruginosa; assay: Potency index, ratio of colistin MIC to test compound MIC for antibacterial activity against colistin resistant Pseudomonas aeruginosa clinical isolate 1; assay type: functional
# [18] = test system: Escherichia coli; assay: Antibacterial activity against […] Escherichia coli clinical isolate 2 assessed as bacterial growth inhibition incubated for 20 hrs by broth microdilution method; assay type: functional
# [19] = test system: Escherichia coli; assay: Antimicrobial activity against […] Escherichia coli harboring mcr-1 assessed as bacterial growth inhibition incubated for 20 hrs by broth microdilution method; assay type: functional
# [20] = test system: Escherichia coli; assay: Antibacterial activity against […] Escherichia coli clinical isolate 1 assessed as bacterial growth inhibition incubated for 20 hrs by broth microdilution method; assay type: functional
# [21] = test system: Escherichia coli; assay: Antibacterial activity against Escherichia coli ATCC 25922 assessed as bacterial growth inhibition incubated for 20 hrs by broth microdilution method; assay type: functional
# [22] = test system: Pseudomonas aeruginosa; assay: Potency index, ratio of polymyxin B MIC to test compound MIC for antibacterial activity against colistin resistant Pseudomonas aeruginosa clinical isolate 1; assay type: functional
# [23] = test system: Klebsiella pneumoniae; assay: Antimicrobial activity against colistin resistant Klebsiella pneumoniae clinical isolate 4 assessed as bacterial growth inhibition incubated for 20 hrs by broth microdilution method; assay type: functional
# [24] = test system: Klebsiella pneumoniae; assay: Antimicrobial activity against colistin resistant Klebsiella pneumoniae ATCC 13883 assessed as bacterial growth inhibition incubated for 20 hrs by broth microdilution method; assay type: functional
# [25] = test system: Escherichia coli; assay: Antibacterial activity against […] Escherichia coli ATCC 25922 assessed as bacterial growth inhibition incubated for 20 hrs by broth microdilution method; assay type: functional
# [26] = test system: Pseudomonas aeruginosa; assay: Antimicrobial activity against colistin resistant Pseudomonas aeruginosa 7197/19 assessed as bacterial growth inhibition incubated for 20 hrs by broth microdilution method; assay type: functional
# [27] = test system: Klebsiella pneumoniae; assay: Antimicrobial activity against colistin resistant Klebsiella pneumoniae clinical isolate 5 assessed as bacterial growth inhibition incubated for 20 hrs by broth microdilution method; assay type: functional
# [28] = test system: Acinetobacter baumannii; assay: Antimicrobial activity against colistin resistant Acinetobacter baumannii ATCC 19606 assessed as bacterial growth inhibition incubated for 20 hrs by broth microdilution method; assay type: functional
# [29] = test system: Cell membrane; assay: Induction of membrane destabilization in Escherichia coli MG1655 assessed as SYTOX uptake at 2 times MIC measured every 5 mins for 120 mins by microplate reader assay; assay type: cell membranes
# [30] = test system: Klebsiella pneumoniae; assay: Antimicrobial activity against colistin resistant Klebsiella pneumoniae clinical isolate 6 assessed as bacterial growth inhibition incubated for 20 hrs by broth microdilution method; assay type: functional
# [31] = test system: HepG2; assay: Cytotoxicity against human HepG2 cells incubated for 48 hrs by MTT assay; assay type: toxicity, cell-based
# [32] = test system: Erythrocyte; assay: Hemolytic activity in human RBC at 400 ug/ml after 1 hr; assay type: toxicity, cell-based; details: erythrocyte, 1 h, at 400 µg/mL
Compound,MIC [1],MIC [2],MIC [3],MIC [5],MIC [6],MIC [7],MIC [8],MIC [9],MIC [10],MIC [11],MIC [12],MIC [14],MIC [15],MIC [16],Ratio [17],MIC [18],MIC [19],MIC [20],MIC [21],MIC [24],other results
CCCCCCCC(=O)N[C@@H](CCN)C(=O)N[C@H](C(=O)N[C@@H](CCN)C(=O)N[C@H]1CCNC(=O)[C@H]([C@@H](C)O)NC(=O)[C@H](CCN)NC(=O)[C@H](CCN)NC(=O)[C@H](CCCc2ccccc2)NC(=O)[C@@H](Cc2ccccc2)NC(=O)[C@H](CCN)NC1=O)[C@@H](C)O,2 µg/mL,< 0.125 µg/mL,1 µg/mL,2 µg/mL,2 µg/mL,0.125 µg/mL,0.125 µg/mL,< 0.125 µg/mL,1 µg/mL,4 µg/mL,2 µg/mL,< 0.125 µg/mL,8 µg/mL,0.5 µg/mL,2,1 µg/mL,0.5 µg/mL,–,–,–,Ratio [4]: 4; Ratio [13]: 4
CCCCCCCC(=O)N[C@@H](CCN)C(=O)N[C@H](C(=O)N[C@@H](CCN)C(=O)N[C@H]1CCNC(=O)[C@H]([C@@H](C)O)NC(=O)[C@H](CCN)NC(=O)[C@H](CCN)NC(=O)[C@H](CC(C)C)NC(=O)[C@@H](Cc2ccc(Br)cc2)NC(=O)[C@H](CCN)NC1=O)[C@@H](C)O,2 µg/mL,0.125 µg/mL,2 µg/mL,–,2 µg/mL,–,–,–,2 µg/mL,–,8 µg/mL,0.125 µg/mL,16 µg/mL,–,–,2 µg/mL,1 µg/mL,2 µg/mL,< 0.125 µg/mL,16 µg/mL,Ratio [22]: 2; MIC [23]: 16 µg/mL; MIC [25]: 0.125 µg/mL; MIC [26]: 0.125 µg/mL
CCCCCCCC(=O)N[C@@H](CCN)C(=O)N[C@H](C(=O)N[C@@H](CCN)C(=O)N[C@H]1CCNC(=O)[C@H]([C@@H](C)O)NC(=O)[C@H](CCN)NC(=O)[C@H](CCN)NC(=O)[C@H](CCCCCC)NC(=O)[C@@H](Cc2ccccc2)NC(=O)[C@H](CCN)NC1=O)[C@@H](C)O,2 µg/mL,< 0.125 µg/mL,–,4 µg/mL,–,0.25 µg/mL,0.125 µg/mL,0.25 µg/mL,1 µg/mL,8 µg/mL,–,< 0.123 µg/mL,16 µg/mL,16 µg/mL,2,1 µg/mL,0.5 µg/mL,–,< 0.125 µg/mL,8 µg/mL,Ratio [13]: 4; Ratio [22]: 2; MIC [27]: 16 µg/mL; MIC [28]: 0.25 µg/mL
CCCCCCCC(=O)N[C@@H](CCN)C(=O)N[C@H](C(=O)N[C@@H](CCN)C(=O)N[C@H]1CCNC(=O)[C@H]([C@@H](C)O)NC(=O)[C@H](CCN)NC(=O)[C@H](CCN)NC(=O)C(CCCCCC)NC(=O)[C@@H](Cc2ccccc2)NC(=O)[C@@H](CCN)NC1=O)[C@H](C)O (stereo partly specified),–,–,–,–,–,–,–,–,–,–,–,–,–,–,–,–,–,–,–,–,Activity [29]: Active
CCCCCCCC(=O)N[C@@H](CCN)C(=O)N[C@H](C(=O)N[C@@H](CCN)C(=O)N[C@H]1CCNC(=O)[C@H]([C@@H](C)O)NC(=O)[C@H](CCN)NC(=O)[C@H](CCN)NC(=O)C(CCCc2ccccc2)NC(=O)[C@@H](Cc2ccccc2)NC(=O)[C@@H](CCN)NC1=O)[C@H](C)O (stereo partly specified),–,–,–,–,–,–,–,–,–,–,–,–,–,–,–,–,–,–,–,–,Activity [29]: Active
CCCCCCCC(=O)N[C@@H](CCN)C(=O)N[C@H](C(=O)N[C@@H](CCN)C(=O)N[C@H]1CCNC(=O)[C@H]([C@@H](C)O)NC(=O)[C@H](CCN)NC(=O)[C@H](CCN)NC(=O)[C@H](CC(C)C)NC(=O)[C@@H](Cc2ccc(Br)cc2)NC(=O)[C@@H](CCN)NC1=O)[C@H](C)O,–,–,–,–,–,–,–,–,–,–,–,–,–,–,–,–,–,–,–,–,Activity [29]: Active
CC[C@H](C)[C@@H]1NC(=O)[C@@H](CC(C)C)NC(=O)[C@H](CCN)NC(=O)[C@@H](NC(=O)[C@@H](CO)NC(=O)[C@@H](NC(=O)[C@H](CCN)NC(=O)c2ccc(-c3ccccc3)cc2)[C@@H](C)O)CCNC(=O)[C@H](CC(C)C)NC(=O)[C@H](CCN)NC(=O)[C@H](CCN)NC1=O ({Benzoyl(4-Ph)}-[Dab]T[dS][Dab][Dab][dL]I[Dab][Dab]L; lactam 4-C),2 µg/mL,–,4 µg/mL,2 µg/mL,–,0.5 µg/mL,–,1 µg/mL,2 µg/mL,1 µg/mL,–,2 µg/mL,1 µg/mL,–,2,4 µg/mL,4 µg/mL,4 µg/mL,–,2 µg/mL,MIC [30]: 0.5 µg/mL; Ratio [22]: 2; MIC [27]: 1 µg/mL; MIC [28]: 0.5 µg/mL; MIC [25]: 2 µg/mL; MIC [26]: 1 µg/mL
POLYMYXIN B [listing 1 of 2 here],–,–,–,–,–,–,–,–,–,–,–,–,–,–,–,–,–,–,–,–,IC50 [31]: > 1280 µg/mL; Activity [32]: < 10%
POLYMYXIN B [listing 2 of 2 here],4 µg/mL,0.25 µg/mL,8 µg/mL,4 µg/mL,16 µg/mL,0.25 µg/mL,0.25 µg/mL,8 µg/mL,4 µg/mL,8 µg/mL,> 16 µg/mL,0.5 µg/mL,> 16 µg/mL,> 16 µg/mL,–,2 µg/mL,2 µg/mL,2 µg/mL,0.25 µg/mL,16 µg/mL,MIC [30]: 16 µg/mL; MIC [23]: 16 µg/mL; MIC [27]: > 16 µg/mL; MIC [28]: 0.125 µg/mL; MIC [25]: 0.125 µg/mL; MIC [26]: 8 µg/mL
